The results in this text go back to US12378224B2 (Dong-A Socio Holdings Co., Ltd., priority 2016, dated 2025).

In general, IC50 refers to the concentration that inhibits the measured activity by half.

Assay [1] deals with BCR fusion to kinase domain of MerTK (Ba/F3-MerTK) (Homo sapiens, UniProt Q12866). Put plainly: In Cell TAM Kinase Assay Using BaF3 Cellular System. Format: cell-based, murine. As to conditions: Ba/F3 BCR-kinase fusion proliferation, 72 hours, Cell Titer Glo; kinase not given; read-out: IC50. Put shortly: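 Ba/F3 murine pro-B cells expressing BCR–MerTK kinase-domain fusion (IL-3 independent), seeded at 1,000 cells/well onto compound and grown 72 h. Viability read by CellTiter-Glo 2.0 luminescence after 30 min at room temperature.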
A general note: Cellular ATP, detected with luciferase, serves as a proxy for viable cell number.

The next assay deals with human MER (528-end) (Homo sapiens (Human), UniProt Q12866). Put plainly: HTRF Kinase Activity Biochemical Assay (KinEASE-TK). As to conditions: 10 uM ATP. Summed up:
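Activity read-out is the HTRF ratio (665 nm over 620 nm emission, ×10,000; excitation 340 nm) after 1 h detection with 0.375 nM Eu3+-cryptate anti-TK antibody plus 0.062 uM SA-XL665. Preceding kinase step: human MER (528-end), biotinylated TK substrate, 1 h, room temperature.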

human MER (528-end), sequence (Q12866 528-999 limits assumed): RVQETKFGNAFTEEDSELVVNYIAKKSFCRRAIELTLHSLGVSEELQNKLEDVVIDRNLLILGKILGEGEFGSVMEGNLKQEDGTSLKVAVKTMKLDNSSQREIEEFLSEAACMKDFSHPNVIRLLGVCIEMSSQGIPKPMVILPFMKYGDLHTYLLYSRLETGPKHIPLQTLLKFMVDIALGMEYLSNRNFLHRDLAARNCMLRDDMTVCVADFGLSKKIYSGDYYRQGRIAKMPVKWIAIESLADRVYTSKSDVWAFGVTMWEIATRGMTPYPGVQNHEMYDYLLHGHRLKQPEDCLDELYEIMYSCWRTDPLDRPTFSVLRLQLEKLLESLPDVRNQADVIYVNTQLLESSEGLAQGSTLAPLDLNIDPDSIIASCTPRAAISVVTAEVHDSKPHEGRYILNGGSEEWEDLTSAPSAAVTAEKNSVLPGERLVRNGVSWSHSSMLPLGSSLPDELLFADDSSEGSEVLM
BCR fusion to kinase domain of MerTK (Ba/F3-MerTK), sequence (Q12866 21-999 limits assumed, change not shown): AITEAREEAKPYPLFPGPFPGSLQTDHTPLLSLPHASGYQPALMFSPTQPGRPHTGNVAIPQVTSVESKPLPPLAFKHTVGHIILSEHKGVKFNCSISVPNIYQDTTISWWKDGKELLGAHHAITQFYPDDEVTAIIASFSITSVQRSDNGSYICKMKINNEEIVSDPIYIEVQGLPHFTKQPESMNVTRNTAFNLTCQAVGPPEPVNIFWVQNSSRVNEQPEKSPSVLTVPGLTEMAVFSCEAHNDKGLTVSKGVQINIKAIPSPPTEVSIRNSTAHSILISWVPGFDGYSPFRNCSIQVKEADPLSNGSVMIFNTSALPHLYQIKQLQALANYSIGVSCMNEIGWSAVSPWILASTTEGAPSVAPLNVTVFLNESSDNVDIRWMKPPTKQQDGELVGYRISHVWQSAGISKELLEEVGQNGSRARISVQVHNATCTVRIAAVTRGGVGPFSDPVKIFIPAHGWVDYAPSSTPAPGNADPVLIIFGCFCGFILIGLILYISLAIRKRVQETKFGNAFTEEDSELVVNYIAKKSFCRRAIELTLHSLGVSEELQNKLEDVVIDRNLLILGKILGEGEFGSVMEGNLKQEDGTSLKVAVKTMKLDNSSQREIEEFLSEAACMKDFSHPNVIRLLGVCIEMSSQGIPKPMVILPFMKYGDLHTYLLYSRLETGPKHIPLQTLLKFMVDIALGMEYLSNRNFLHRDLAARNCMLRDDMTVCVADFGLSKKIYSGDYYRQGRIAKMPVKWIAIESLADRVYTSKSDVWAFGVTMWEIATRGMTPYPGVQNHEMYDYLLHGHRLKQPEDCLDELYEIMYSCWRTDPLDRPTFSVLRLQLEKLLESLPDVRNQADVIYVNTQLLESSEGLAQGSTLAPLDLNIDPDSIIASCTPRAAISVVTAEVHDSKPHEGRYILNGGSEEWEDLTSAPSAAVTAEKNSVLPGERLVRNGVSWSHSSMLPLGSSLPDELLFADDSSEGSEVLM

Regarding `Cn1cc(-c2cnc(N)c(C(=O)N[C@@H]3CCN(C(=O)c4ccc(-c5ccc6ccccc6c5)cc4)C3)c2)cn1` [Example 750, (R)-2-amino-5-(1-methyl-1H-pyrazol-4-yl)-N-(1-(4-(naphthalen-2-yl)benzoyl)pyrrolidin-3-yl)nicotinamide], the results for the IC50 (in assay [1]; at human MER (528-end)) were above 1000 nM and 10 to 100 nM, respectively.
For the compound `Cn1cc(-c2cnc(N)c(C(=O)N[C@@H]3CCN(C(=O)c4ccc(C5=CCNCC5)cc4)C3)c2)cn1` [Example 753, (R)-2-amino-5-(1-methyl-1H-pyrazol-4-yl)-N-(1-(4-(1,2,3,6-tetrahydropyridin-4-yl)benzoyl)pyrrolidin-3-yl)nicotinamide], the IC50 (in assay [1]; on human MER (528-end)) was above 1000 nM throughout.
On to `CN1CC=C(c2ccc(C(=O)N3CC[C@@H](NC(=O)c4cc(-c5cnn(C)c5)cnc4N)C3)cc2)CC1` [Example 754, (R)-2-amino-N-(1-(4-(1-methyl-1,2,3,6-tetrahydropyridin-4-yl)benzoyl)pyrrolidin-3-yl)-5-(1-methyl-1H-pyrazol-4-yl)nicotinamide], for which the IC50 (in assay [1]; at human MER (528-end)) was above 1000 nM throughout.
For `Cn1cc(-c2cnc(N)c(C(=O)N[C@@H]3CCN(C(=O)c4ccc(-c5ccc(C6=CCNCC6)cc5)cc4)C3)c2)cn1` [Example 755, (R)-2-amino-5-(1-methyl-1H-pyrazol-4-yl)-N-(1-(4′-(1,2,3,6-tetrahydropyridin-4-yl)-[1,1′-biphenyl]-4-carbonyl)pyrrolidin-3-yl)nicotinamide], the IC50 (in assay [1]; against human MER (528-end)) was above 1000 nM throughout.
Consider `Cn1cc(-c2cnc(N)c(C(=O)N[C@@H]3CCN(C(=O)c4ccc(-c5ccc6c(ccn6C)c5)cc4)C3)c2)cn1` [Example 756, (R)-2-amino-N-(1-(4-(1-methyl-1H-indol-5-yl)benzoyl)pyrrolidin-3-yl)-5-(1-methyl-1H-pyrazol-4-yl)nicotinamide], for which the IC50 is above 1000 nM in assay [1] and 100 to 1000 nM against human MER (528-end).
The matching figures for `Cn1cc(-c2cnc(N)c(C(=O)N[C@@H]3CCN(C(=O)c4ccc(-c5ccc6c(cnn6C)c5)cc4)C3)c2)cn1` [Example 757, (R)-2-amino-N-(1-(4-(1-methyl-1H-indazol-5-yl)benzoyl)pyrrolidin-3-yl)-5-(1-methyl-1H-pyrazol-4-yl)nicotinamide]: above 1000 nM and 100 to 1000 nM.
The matching figures for `CN(C)CCOc1ccc2cc(C(=O)N3CC[C@@H](NC(=O)c4cc(-c5cnn(C)c5)cnc4N)C3)ccc2c1` [Example 762]: above 1000 nM and 100 to 1000 nM.
The matching figures for `CN1CCCC1CCOc1ccc2cc(C(=O)N3CC[C@@H](NC(=O)c4cc(-c5cnn(C)c5)cnc4N)C3)ccc2c1` (some centres unmarked) [Example 764]: above 1000 nM and 100 to 1000 nM.
As to `Cn1cc(-c2cnc(N)c(C(=O)N[C@@H]3CCN(C(=O)c4ccc5cc(OCCN6CCCC6)ccc5c4)C3)c2)cn1` [Example 765, (R)-2-amino-5-(1-methyl-1H-pyrazol-4-yl)-N-(1-(6-(2-(pyrrolidin-1-yl)ethoxy)-2-naphthoyl)pyrrolidin-3-yl)nicotinamide], the figures for the IC50 (in assay [1]; against human MER (528-end)) were above 1000 nM and 100 to 1000 nM, respectively.
The matching figures for `CN(C)CCCOc1ccc2cc(C(=O)N3CC[C@@H](NC(=O)c4cc(-c5cnn(C)c5)cnc4N)C3)ccc2c1` [Example 766, (R)-2-amino-N-(1-(6-(3-(dimethylamino)propoxy)-2-naphthoyl)pyrrolidin-3-yl)-5-(1-methyl-1H-pyrazol-4-yl)nicotinamide]: above 1000 nM and 100 to 1000 nM.
Consider `CN1CCC(COc2ccc3cc(C(=O)N4CC[C@@H](NC(=O)c5cc(-c6cnn(C)c6)cnc5N)C4)ccc3c2)CC1` [Example 767, (R)-2-amino-5-(1-methyl-1H-pyrazol-4-yl)-N-(1-(6-((1-methylpiperidin-4-yl)methoxy)-2-naphthoyl)pyrrolidin-3-yl)nicotinamide], for which the figures for the IC50 (in assay [1]; against human MER (528-end)) were above 1000 nM and 100 to 1000 nM, respectively.
On to `Cn1cc(-c2cnc(N)c(C(=O)N[C@@H]3CCN(C(=O)c4ccc(OCc5ccc([N+](=O)[O-])cc5)cc4)C3)c2)cn1` [Example 769, (R)-2-amino-5-(1-methyl-1H-pyrazol-4-yl)-N-(1-(4-((4-nitrobenzyl)oxy)benzoyl)pyrrolidin-3-yl)nicotinamide], for which the IC50 in assay [1] was above 1000 nM; at human MER (528-end), 100 to 1000 nM.
For `Cn1cc(-c2cnc(N)c(C(=O)N[C@@H]3CCN(C(=O)c4ccc(OCc5cccc([N+](=O)[O-])c5)cc4)C3)c2)cn1` [Example 770, (R)-2-amino-5-(1-methyl-1H-pyrazol-4-yl)-N-(1-(4-((3-nitrobenzyl)oxy)benzoyl)pyrrolidin-3-yl)nicotinamide] the same measures were above 1000 nM and 100 to 1000 nM.
For `Nc1ncc(-c2ccc(F)nc2)cc1C(=O)N[C@@H]1CCN(C(=O)c2ccc(-c3ccc(F)cc3Cl)cc2)C1` [Example 774, (R)-6-amino-N-(1-(2′-chloro-4′-fluoro-[1,1′-biphenyl]-4-carbonyl)pyrrolidin-3-yl)-6^1-fluoro-[3,3′-bipyridine]-5-carboxamide] the same measures were 100 to 500 nM and 10 to 100 nM.
For `NC(=O)c1ccccc1-c1cnc(N)c(C(=O)N[C@@H]2CCN(C(=O)c3ccc(-c4ccc(F)cc4Cl)cc3)C2)c1` [Example 776, (R)-2-amino-5-(2-carbamoylphenyl)-N-(1-(2′-chloro-4′-fluoro-[1,1′-biphenyl]-4-carbonyl)pyrrolidin-3-yl)nicotinamide] the same measures were above 1000 nM and above 1000 nM.
On to `Nc1ncc(-c2ccccc2O)cc1C(=O)N[C@@H]1CCN(C(=O)c2ccc(-c3ccc(F)cc3Cl)cc2)C1` [Example 778, (R)-2-amino-N-(1-(2′-chloro-4′-fluoro-[1,1′-biphenyl]-4-carbonyl)pyrrolidin-3-yl)-5-(2-hydroxyphenyl)nicotinamide], for which the values for the IC50 (in assay [1]; at human MER (528-end)) were above 1000 nM and 100 to 1000 nM, respectively.
For `Nc1ccccc1-c1cnc(N)c(C(=O)N[C@@H]2CCN(C(=O)c3ccc(-c4ccc(F)cc4Cl)cc3)C2)n1` [Example 779, (R)-3-amino-6-(2-aminophenyl)-N-(1-(2′-chloro-4′-fluoro-[1,1′-biphenyl]-4-carbonyl)pyrrolidin-3-yl)pyrazine-2-carboxamide] the same measures were above 1000 nM and 100 to 1000 nM.
In the case of `Nc1ncc(-c2ccc(C(=O)N3CCOCC3)c(Cl)c2)cc1C(=O)N[C@@H]1CCN(C(=O)c2ccc(-c3ccc(F)cc3Cl)cc2)C1` [Example 781, (R)-2-amino-N-(1-(2′-chloro-4′-fluoro-[1,1′-biphenyl]-4-carbonyl)pyrrolidin-3-yl)-5-(3-chloro-4-(morpholine-4-carbonyl)phenyl)nicotinamide], the IC50 was above 1000 nM in assay [1] and 10 to 100 nM against human MER (528-end).
The matching figures for `Cn1cc(-c2cnc(N)c(C(=O)N[C@@H]3CCN(C(=O)c4ccc5cc(C(=O)N6CCN(CCO)CC6)ccc5c4)C3)c2)cn1` [Example 786, (R)-2-amino-N-(1-(6-(4-(2-hydroxyethyl)piperazine-1-carbonyl)-2-naphthoyl)pyrrolidin-3-yl)-5-(1-methyl-1H-pyrazol-4-yl)nicotinamide]: above 1000 nM and above 1000 nM.
As to `CN(C)C(=O)c1ccc(Oc2ccc(-c3ccc(C(=O)N4CC[C@@H](NC(=O)c5cc(-c6cnn(C)c6)cnc5N)C4)cc3)cc2)cc1` [Example 787, (R)-2-amino-N-(1-(4′-(4-(dimethylcarbamoyl)phenoxy)-[1,1′-biphenyl]-4-carbonyl)pyrrolidin-3-yl)-5-(1-methyl-1H-pyrazol-4-yl)nicotinamide], the IC50 was above 1000 nM in assay [1] and 10 to 100 nM against human MER (528-end).
For `Cn1cc(-c2cnc(N)c(C(=O)N[C@@H]3CCN(C(=O)c4ccc(-c5ccc(Oc6ccc(C(N)=O)cc6)cc5)cc4)C3)c2)cn1` [Example 788, (R)-2-amino-N-(1-(4′-(4-carbamoylphenoxy)-[1,1′-biphenyl]-4-carbonyl)pyrrolidin-3-yl)-5-(1-methyl-1H-pyrazol-4-yl)nicotinamide] the same measures were above 1000 nM and 10 to 100 nM.
In the case of `CN1CCN(Cc2ccc(-c3ccc(C(=O)N4CC[C@@H](Nc5n[nH]c6ncc(-c7cnn(C)c7)cc56)C4)cc3)cc2)CC1` [Example 794, (R)-(3-((5-(1-methyl-1H-pyrazol-4-yl)-1H-pyrazolo[3,4-b]pyridin-3-yl)amino)pyrrolidin-1-yl)(4′-((4-methylpiperazin-1-yl)methyl)-[1,1′-biphenyl]-4-yl)methanone], the IC50 is above 1000 nM in assay [1] and 10 to 100 nM at human MER (528-end).
For the compound `Cn1cc(-c2cnc(N)c(C(=O)N[C@@H]3CCN(C(=O)c4ccc(-c5ccc(Oc6ccnc(Cl)c6)cc5)cc4)C3)c2)cn1` [Example 795, (R)-2-amino-N-(1-(4′-((2-chloropyridin-4-yl)oxy)-[1,1′-biphenyl]-4-carbonyl)pyrrolidin-3-yl)-5-(1-methyl-1H-pyrazol-4-yl)nicotinamide], the values for the IC50 (in assay [1]; on human MER (528-end)) were 500 to 1000 nM and 10 to 100 nM, respectively.
For `Cn1cc(-c2cnc(N)c(C(=O)N[C@@H]3CCN(C(=O)c4ccc(-c5ccc(Oc6ccncc6)cc5)cc4)C3)c2)cn1` [Example 798, (R)-2-amino-5-(1-methyl-1H-pyrazol-4-yl)-N-(1-(4′-(pyridin-4-yloxy)-[1,1′-biphenyl]-4-carbonyl)pyrrolidin-3-yl)nicotinamide] the same measures were above 1000 nM and 10 to 100 nM.
Take `Cn1cc(-c2cnc(N)c(C(=O)N[C@@H]3CCN(C(=O)c4ccc(-c5ccc(Oc6cccnc6)cc5)cc4)C3)c2)cn1` [Example 802, (R)-2-amino-5-(1-methyl-1H-pyrazol-4-yl)-N-(1-(4′-(pyridin-3-yloxy)-[1,1′-biphenyl]-4-carbonyl)pyrrolidin-3-yl)nicotinamide]: the figures for the IC50 (in assay [1]; against human MER (528-end)) were above 1000 nM and 100 to 1000 nM, respectively.
